Article PMC5504357, “Antifungal Potential of Copper(II), Manganese(II) and Silver(I) 1,10-Phenanthroline Chelates Against Multidrug-Resistant Fungal Species Forming the Candida haemulonii Complex: Impact on the Planktonic and Biofilm Lifestyles” (Frontiers in Microbiology, 2017)
Converted amounts (≈) assume the structure as drawn. Read-outs that look alike come from different tables or passages of the source.

Tests used:
[1] = test system: Candida duobushaemulonii; assay: Planktonic growth, broth microdilution (CLSI M27-A3), MIC; format: cell-based
Excerpt: (§1) Three clinical isolates of each species that form the C. haemulonii complex were used in this study: C. haemulonii (LIPCh4 from finger nail, LIPCh7 from toe nail, and LIPCh12 from blood), C. duobushaemulonii (LIPCh1 from finger nail, LIPCh6 from toe nail, and LIPCh8 from blood) and C. haemulonii var. vulnera (LIPCh5 from toe nail, LIPCh9 from urine, and LIPCh11 from blood) (Ramos et al., [2015]). The fungal isolates were identified by the automatized system VITEK® 2 and then characterized by ITS1-5.8S-ITS2 gene sequencing (Ramos et al., [2015]). Fungal cells were cultured in Sabouraud-dextrose medium under constant agitation (130 rpm) for 48 h at 37°C. Human lung adenocarcinoma A549 cells were maintained in culture flasks containing DMEM medium supplemented with 10% fetal bovine serum at 37°C in an atmosphere of 5% CO2.
(§2) Susceptibility profile assays were performed in accordance with the broth microdilution protocol described in the document M27-A3 published by the Clinical and Laboratory Standards Institutes (CLSI, [2008]). Samples of the test chelates were dissolved in DMSO (500 μL) and then serially diluted in a 96-well plate containing RPMI 1640 (Sigma-Aldrich, USA) to give the concentration range of 0.0625-32 mg/L. Aqueous solutions of the metal-free phen ligand and the simple metal salts, MnCl2, CuCl2, and AgNO3, were also screened over the same concentration range. Caspofungin (Sigma-Aldrich) was used as a classical antifungal agent able to block the growth of all clinical isolates of C. haemulonii species as previously reported by our research group (Ramos et al., [2015]). Water dilutions containing DMSO concentrations corresponding to those used to prepare the drug solutions were assessed in parallel. Untreated and compound-treated fungal cells were incubated at 37°C for 48 h and the minimal inhibitory concentration (MIC) was established as the lowest compound concentration where no cellular growth could be detected by visual inspection in accordance to the CLSI recommendation. The geometric mean of the MIC values (GM-MIC) of each compound against all the fungal isolates was calculated using the software, Microsoft Office Excel 2013.

[2] = test system: Candida haemulonii var. vulnera; assay: as above; format: cell-based
Excerpt: as §1, §2

[3] = test system: Candida haemulonii; assay: as above; format: cell-based
Excerpt: as §1, §2

[4] = test system: C. haemulonii complex; assay: Planktonic growth, overall across all nine isolates; format: cell-based, Candida haemulonii complex; conditions: for MIC / Overall GM-MIC: geometric mean across all nine strains; for MIC: read-out: Overall GM-MIC; for effect on planktonic fungal growth/viability (in words): nine clinical isolates, 0.0625-32 mg/L
Excerpt: as §1, §2

[5] = test system: A549 cells; assay: Mammalian cell toxicity (MTT assay) and selectivity index; format: cell-based, Human
Excerpt: as §1
The cytotoxicity was evaluated using the MTT [3-(4,5-dimethylthiazol-2-yl)-2,5-diphenyl tetrazolium bromide] (Sigma-Aldrich) assay (Mosmann, [1983]). A549 cells (10^4) were seeded into tissue culture plates (TPP, Switzerland) and cultured for 24 h at 37°C in a 5% CO2 in order to obtain cellular confluence. The wells were then washed twice with DMEM to remove non-adherent cells and the test compounds were added (in concentrations ranging from 0.0313 to 512 μg/mL) to plates containing DMEM, followed by a 48 h incubation period under the same conditions mentioned above. The cellular viability was evaluated by adding MTT to each well and incubating the plates in the dark for 3 h, allowing the viable cells containing active mitochondrial dehydrogenase enzymes to metabolize MTT-tetrazolium salt into purple formazan. The formazan crystals were then dissolved in DMSO (100 μL) and the absorbance (450 nm) measured using a Thermomax Molecular Device microplate reader. The concentration capable of reducing cellular viability by 50% (CC50) was calculated, and the selectivity index (SI) determined using the following equation: A549 CC50/C. haemulonii complex GM-MIC.

[6] = isolate LIP Ch1, planktonic, 48 h, 37°C
[7] = geometric mean of three C. duobushaemulonii isolates
[8] = isolate LIP Ch6, planktonic, 48 h, 37°C
[9] = isolate LIP Ch8, planktonic, 48 h, 37°C
[10] = geometric mean of three C. haemulonii var. vulnera isolates
[11] = isolate LIP Ch5, planktonic, 48 h, 37°C
[12] = isolate LIP Ch9, planktonic, 48 h, 37°C
[13] = isolate LIP Ch11, planktonic, 48 h, 37°C
[14] = geometric mean of three C. haemulonii isolates
[15] = isolate LIP Ch4, planktonic, 48 h, 37°C
[16] = isolate LIP Ch7, planktonic, 48 h, 37°C
[17] = isolate LIP Ch12, planktonic, 48 h, 37°C

Row | SMILES | MIC [1, 6] [mg/L] | GM-MIC [1, 7] [mg/L] | MIC [1, 8] [mg/L] | MIC [1, 9] [mg/L] | GM-MIC [2, 10] [mg/L] | MIC [2, 11] [mg/L] | MIC [2, 12] [mg/L] | MIC [2, 13] [mg/L] | GM-MIC [3, 14] [mg/L] | MIC [3, 15] [mg/L] | MIC [3, 16] [mg/L] | MIC [3, 17] [mg/L] | Overall GM-MIC [4] [mg/L] | effect on planktonic fungal growth/viability (in words) [4] | A549 (CC50) ([5]; MTT, 48 h incubation) [mg/L] | MIC ([4]; in μM) [µM] | A549 (CC50) [5] [mg/L] | other results
1 | CC[C@H](C)C[C@H](C)CCCCCCCCC(=O)N[C@H]1C[C@@H](O)[C@@H](NCCN)NC(=O)[C@@H]2[C@@H](O)CCN2C(=O)[C@H]([C@H](O)CCN)NC(=O)[C@H]([C@H](O)[C@@H](O)c2ccc(O)cc2)NC(=O)[C@@H]2C[C@@H](O)CN2C(=O)[C@H]([C@@H](C)O)NC1=O [Caspofungin, reference compound] | 0.125 (≈ 0.114 µM) |  |  |  |  |  |  |  |  |  |  |  |  |  |  |  |  | MIC ([1]; Candidozyma duobushaemuli, 48 h): 0.125 mg/L (≈ 0.114 µM); MIC ([1]; Candidozyma duobushaemuli, 48 h, isolate LIP Ch6, planktonic, 48 h, 37°C, read-out: MIC): 0.25 mg/L (≈ 0.229 µM); MIC ([1]; Candidozyma duobushaemuli, geometric mean of three C. duobushaemulonii isolates, read-out: GM-MIC): 0.157 mg/L (≈ 0.144 µM); MIC ([2]; Candidozyma haemuli, 48 h, isolate LIP Ch5, planktonic, 48 h, 37°C, read-out: MIC): 0.25 mg/L (≈ 0.229 µM); MIC ([2]; Candidozyma haemuli, 48 h, isolate LIP Ch9, planktonic, 48 h, 37°C, read-out: MIC): 0.25 mg/L (≈ 0.229 µM); MIC ([2]; Candidozyma haemuli, 48 h, isolate LIP Ch11, planktonic, 48 h, 37°C, read-out: MIC): 0.5 mg/L (≈ 0.457 µM); MIC ([2]; Candidozyma haemuli, geometric mean of three C. haemulonii var. vulnera isolates, read-out: GM-MIC): 0.315 mg/L (≈ 0.288 µM); MIC ([3]; Candidozyma haemuli, 48 h): 0.125 mg/L (≈ 0.114 µM); MIC ([3]; Candidozyma haemuli, 48 h, isolate LIP Ch4, planktonic, 48 h, 37°C, read-out: MIC): 0.5 mg/L (≈ 0.457 µM); MIC ([3]; Candidozyma haemuli, 48 h, isolate LIP Ch7, planktonic, 48 h, 37°C, read-out: MIC): 0.25 mg/L (≈ 0.229 µM); MIC ([3]; Candidozyma haemuli, geometric mean of three C. haemulonii isolates, read-out: GM-MIC): 0.25 mg/L (≈ 0.229 µM); MIC ([4]; Candidozyma haemuli, in μM): 0.18 µM; MIC ([4]; Candidozyma haemuli): 0.23 mg/L
2 | [Cl][Cu][Cl] [CuCl2, reference compound] | >32 | >32 | >32 | >32 | >32 | >32 | >32 | >32 | >32 | >32 | >32 | >32 | > 32 | no appreciable effects | 123.68 |  |  | 
3 | [Cl][Mn][Cl] [MnCl2, reference compound] | >32 | >32 | >32 | >32 | >32 | >32 | >32 | >32 | >32 | >32 | >32 | >32 | > 32 | no appreciable effects | 133.76 |  |  | 
4 | O.O.O=C([O-])c1ccccc1C(=O)[O-].[Cu+2].c1cnc2c(c1)ccc1cccnc12 [compound 1, [Cu(ph)(phen)(H2O)2]] | >32 | >32 | >32 | >32 | >32 | >32 | >32 | >32 | >32 | >32 | >32 | >32 | > 32 |  |  | > 72 | 0.53 | 
5 | CCO.CCO.O.O.O.O=C([O-])c1ccccc1C(=O)[O-].[Cu+2].c1cnc2c(c1)ccc1cccnc12.c1cnc2c(c1)ccc1cccnc12 [compound 2, [Cu(ph)(phen)2].3H2O.2EtOH] | >32 | >32 | >32 | >32 | >32 | >32 | >32 | >32 | >32 | >32 | >32 | >32 | > 32 |  |  | > 43.52 | 1.93 | 
6 | CCO.CCO.O=C([O-])c1ccc(C(=O)[O-])cc1.O=C([O-])c1ccc(C(=O)[O-])cc1.[Cu+2].[Cu+2].c1cnc2c(c1)ccc1cccnc12.c1cnc2c(c1)ccc1cccnc12.c1cnc2c(c1)ccc1cccnc12.c1cnc2c(c1)ccc1cccnc12 [compound 4, [{Cu(phen)2}2(terph)](terph).13.5H2O.2EtOH] | >32 | >32 | >32 | >32 | 32 | 32 | 32 | 32 | >32 | >32 | >32 | >32 | > 32 |  | 3.86 | > 21.92 |  | 
